Like-named read-outs stand apart in the source and are kept apart here. Each block holds one molecule with its values, some of them ahead of it.
Key:
[1] = Stability in human liver microsome; conditions: for T1/2 (min) / k / Original drug residual % at 60 min / CLint: human liver microsome 0.5 mg protein/mL, compound 1 μM; for k: slope of log remaining amount versus time; for Original drug residual % at 60 min: β-NADPH 1 mM, 37° C.; for half-life at 1 μM: human, liver microsomes
[2] = Rat pharmacokinetic evaluation; format: in vivo, SD male rats; conditions: male, Sprague-Dawley, plasma, SD rat; for Tmax / AUC(0-t) / half-life: po, intragastric 5 mg/kg; for Tmax: median; for AUC(0-t): read-out: AUClast po; for half-life: read-out: tz1/2 po (terminal elimination half-life) (converted); for bioavailability: dose iv/po 1/5 mg/kg, read-out: F % (absolute bioavailability)
Method: Experimental Example 4: Rat Pharmacokinetic Evaluation of the Compounds of the Invention
Aim: The in vivo pharmacokinetic parameters of the compounds in SD male rats (purchased from Beijing Vital River Animal Technology Co., Ltd.) were evaluated and bioavailability of the compounds was examined.
Animal Administration and Sample Collection:
The solution of compounds 65, 90, 107, 158 was intragastrically administered to SD rat at a dose of 5.0 mg/kg.
The experimental compound 76 was dissolved in 30% DMF+30% PEG400+40% saline to prepare a solution. The solution of compound 76 was intragastrically administered to SD rat at a dose of 5.0 mg/kg.
The experimental compound 76 was dissolved in 30% DMF+30% PEG400+40% saline to prepare a solution.
The experimental compounds 84 and 96 were dissolved in 5% DMSO+10% PEG400+85% (28% HP-β-CD) saline to prepare a solution. The solution of compounds 84 and 96 was intragastrically administered to SD rat at a dose of 5.0 mg/kg.
The experimental compounds 84 and 96 were dissolved in 5% DMSO+10% PEG400+85% (28% HP-β-CD) saline to prepare a solution.
The animals were fixed. The tail was heated with a water bath at 10 min before each time point. About 100 μL of blood from tail vein was collected, and then placed in an anti-coagulation tube containing EDTA-K2 after collection. Blood samples were centrifuged at 8000 rpm at 4° C. for 6 min to obtain plasma samples.
The concentration of test sample was output using Analyst 1.6.1 from AB SCIEX.

[3] = Rat pharmacokinetic evaluation; format: in vivo, SD male rats; conditions: SD rat, intravenous bolus 1 mg/kg; for AUC(0-t) / clearance / half-life: male, Sprague-Dawley, plasma; for AUC(0-t): read-out: AUClast iv; for clearance: read-out: Cl_obs iv (clearance rate) (converted); for half-life: read-out: tz1/2 iv (terminal elimination half-life) (converted)
[4] = Canine pharmacokinetic evaluation; format: in vivo; conditions: Beagle dogs; for Vz_obs iv (apparent distribution volume) / AUC(0-inf) / half-life / bioavailability / clearance: n = 3; for Tmax / AUC(0-inf) / half-life / bioavailability / clearance: dog, plasma; for Tmax: n = 3, median; for clearance: read-out: Cl_obs iv (clearance rate) (converted)
Text: 1. Animal Administration and Sample Collection
2. Sample Analysis Method
3. Data Processing Method

[5] = in vitro; conditions: human, microsomes
[6] = human; for CLint: microsomes
[7] = intravenous bolus 1 mg/kg, read-out: AUCinf iv
[8] = intravenous bolus 1 mg/kg, read-out: tz1/2 iv (terminal elimination half-life) (converted)

Compound: N#Cc1c(N2CCC3(CC2)CC3)c2cc(C(=O)O)ncc2[nH]c1=O [Compound 83, 3-cyano-2-oxo-4-(6-azaspiro[2.5]octane-6-yl)-1,2-dihydro-1,7-naphthyridin-6-carboxylic acid]
T1/2 (min) [1]: →∞ | k [1]: 0.5421 min⁻¹ | Original drug residual % at 60 min [1]: 104.1%

CLint [1]: 0.0024 mL · min^−1 · mg^−1 proteins | k [1]: 0.0012 min⁻¹ | Original drug residual % at 60 min [1]: 94.6% | half-life at 1 μM [1]: 9.63 h
Compound: COC1(C)CCN(c2c(C#N)c(=O)[nH]c3cnccc23)CC1 [Compound 81, 4-(4-methoxy-4-methylpiperidin-1-yl)-2-oxo-1,2-dihydro-1,7-naphthyridin-3-carbonitrile]

CLint [1]: 0.0020 mL · min^−1 · mg^−1 proteins | k [1]: 0.4444 min⁻¹ | Original drug residual % at 60 min [1]: 91.9% | half-life at 1 μM [1]: 11.6 h
Compound: COC1(C)CCN(c2c(C#N)c(=O)[nH]c3cnc(C(C)(C)O)cc23)CC1 [Compound 109, 6-(2-hydroxypropan-2-yl)-4-(4-methoxy-4-methylpiperidin-1-yl)-2-oxo-1,2-dihydro-1,7-naphthyridine-3-carbonitrile]

Compound: Cc1cc2c(N3CCC4(CCC4)CC3)c(C#N)c(=O)[nH]c2cn1 [Compound 65, 6-methyl-2-oxo-4-(7-azaspiro[3.5]nonane-7-yl)-1,2-dihydro-1,7-naphthyridin-3-carbonitrile]
Tmax [2]: 0.5 h | AUC(0-t) [2]: 3000 ng·h/mL | half-life [2]: 2.25 h | bioavailability [2]: 51.8% | Vz_obs iv (apparent distribution volume) [3]: 1.75 L/kg | AUC(0-t) [3]: 1240 ng·h/mL | clearance [3]: 13.8 mL/min/kg | half-life [3]: 1.47 h | Vz_obs iv (apparent distribution volume) ([4]; intravenous bolus 1 mg/kg): 0.66 L/kg | Tmax ([4]; po, intragastric 2 mg/kg): 0.5 h | AUC(0-inf) ([4]; po, intragastric 2 mg/kg, read-out: AUCinf po): 543 ng·h/mL | half-life ([4]; po, intragastric 2 mg/kg, read-out: tz1/2 po (terminal elimination half-life) (converted)): 0.47 h | bioavailability ([4]; dose iv/po 1/2 mg/kg): 25.5% | AUC(0-inf) [4, 7]: 1060 ng·h/mL | clearance ([4]; intravenous bolus 1 mg/kg): 15.7 mL/min/kg | half-life [4, 8]: 0.49 h

Compound: N#Cc1c(N2CCC3(CCC3)CC2)c2cc(N3CC(N)C3)ncc2[nH]c1=O [Compound 53, 6-(3-aminoazetidin-1-yl)-2-oxo-4-(7-azaspiro[3.5]nonane-7-yl)-1,2-dihydro-1,7-naphthyridin-3-carbonitrile]
half-life [5]: 10.5 h | Original drug residual % at 60 min [6]: 91.4% | k [6]: 0.4821 min⁻¹ | CLint [6]: 0.0022 mL · min^−1 · mg^−1 proteins

Compound: CC(C)(O)c1cc2c(N3CCC4(CCC4)CC3)c(C#N)c(=O)[nH]c2cn1 [Compound 82, 6-(2-hydroxypropan-2-yl)-2-oxo-4-(7-azaspiro[3.5]nonane-7-yl)-1,2-dihydro-1,7-naphthyridin-3-carbonitrile]
half-life [5]: 2.07 h | Original drug residual % at 60 min [6]: 72.4% | k [6]: 0.9760 min⁻¹ | CLint [6]: 0.0112 mL · min^−1 · mg^−1 proteins

CLint [1]: 0.0026 mL · min^−1 · mg^−1 proteins | k [1]: 0.0013 min⁻¹ | Original drug residual % at 60 min [1]: 92.6% | half-life at 1 μM [1]: 8.88 h
Compound: COC1(C)CCN(c2c(C#N)c(=O)[nH]c3cnc(C)cc23)CC1 [Compound 158, 4-(4-methoxy-4-methylpiperidin-1-yl)-6-methyl-2-oxo-1,2-dihydro-1,7-naphthyridin-3-carbonitrile]

Compound: COc1cc2c(N3CCC4(CCC4)CC3)c(C#N)c(=O)[nH]c2cn1 [Compound 66, 6-methoxy-2-oxo-4-(7-azaspiro[3.5]nonane-7-yl)-1,2-dihydro-1,7-naphthyridin-3-carbonitrile]
k [1]: -0.515 min⁻¹ | Original drug residual % at 60 min [1]: 101%

Compound: N#Cc1c(N2CCC3(CC2)CC3)c2ncccc2[nH]c1=O [Compound 80, 2-oxo-4-(6-azaspiro[2.5]octane-6-yl)-1,2-dihydro-1,5-naphthyridin-3-carbonitrile]
half-life [5]: 0.792 h | Original drug residual % at 60 min [6]: 41.7% | k [6]: 0.9877 min⁻¹ | CLint [6]: 0.0292 mL · min^−1 · mg^−1 proteins

Compound: N#Cc1c(N2CCC3(CCC3)CC2)c2cc(N3CC(O)C3)ncc2[nH]c1=O [Compound 51, 6-(3-hydroxyazetidin-1-yl)-2-oxo-4-(7-azaspiro[3.5]nonane-7-yl)-1,2-dihydro-1,7-naphthyridin-3-carbonitrile]
half-life [5]: 2.1 h | Original drug residual % at 60 min [6]: 74.1% | k [6]: 0.9418 min⁻¹ | CLint [6]: 0.0110 mL · min^−1 · mg^−1 proteins

Tmax [2]: 0.5 h | AUC(0-t) [2]: 1940 ng·h/mL | half-life [2]: 2.68 h | bioavailability [2]: 56.8% | Vz_obs iv (apparent distribution volume) [3]: 2.13 L/kg | AUC(0-t) [3]: 748 ng·h/mL | clearance [3]: 24.2 mL/min/kg | half-life [3]: 1.25 h | CLint [1]: 0.0046 mL · min^−1 · mg^−1 proteins | k [1]: 0.0023 min⁻¹ | Original drug residual % at 60 min [1]: 88.5% | half-life at 1 μM [1]: 5.02 h | Vz_obs iv (apparent distribution volume) ([4]; intravenous bolus 1 mg/kg): 2.05 L/kg | Tmax ([4]; po, intragastric 1 mg/kg): 0.5 h | AUC(0-inf) ([4]; po, intragastric 1 mg/kg, read-out: AUCinf po): 757 ng·h/mL | half-life ([4]; po, intragastric 1 mg/kg, read-out: tz1/2 po (terminal elimination half-life) (converted)): 2.56 h | bioavailability ([4]; dose iv/po 1/1 mg/kg): 61.5% | AUC(0-inf) [4, 7]: 1230 ng·h/mL | clearance ([4]; intravenous bolus 1 mg/kg): 16 mL/min/kg | half-life [4, 8]: 1.64 h
Compound: CCc1cc2c(N3CCC(C)(OC)CC3)c(C#N)c(=O)[nH]c2cn1 [Compound 107, 6-ethyl-4-(4-methoxy-4-methylpiperidin-1-yl)-2-oxo-1,2-dihydro-1,7-naphthyridin-3-carbonitrile]

Compound: N#Cc1c(N2CCC3(CC2)CC3)c2cc(C(O)CO)ncc2[nH]c1=O (stereo not drawn) [Compound 32, 6-(1,2-dihydroxyethyl)-2-oxo-4-(6-azaspiro[2.5]octane-6-yl)-1,2-dihydro-1,7-naphthyridin-3-carbonitrile]
T1/2 (min) [1]: →∞ | k [1]: -0.3760 min⁻¹ | Original drug residual % at 60 min [1]: 99.8%

CLint [1]: 0.1244 mL · min^−1 · mg^−1 proteins | k [1]: 0.727 min⁻¹ | Original drug residual % at 60 min [1]: 5.19% | half-life at 1 μM [1]: 0.186 h
Compound: N#Cc1c(Nc2ccc(Cl)cc2)c2ccncc2[nH]c1=O [Compound 18, 4-((4-chlorophenyl)amino)-2-oxo-1,2-dihydro-1,7-naphthyridin-3-carbonitrile]

Compound: CNC(=O)c1cc2c(N3CCC4(CC3)CC4)c(C#N)c(=O)[nH]c2cn1 [Compound 96, 3-cyano-N-methyl-2-oxo-4-(6-azaspiro[2.5]octane-6-yl)-1,2-dihydro-1,7-naphthyridin-6-formamide]
Vz_obs iv (apparent distribution volume) [3]: 0.57 L/kg | AUC(0-t) [3]: 769 ng·h/mL | clearance [3]: 22 mL/min/kg | half-life [3]: 0.3 h

Compound: CC(C)(O)c1cc2c(N3CCC4(CC3)CC4)c(C#N)c(=O)[nH]c2cn1 [Compound 84, 6-(2-hydroxypropan-2-yl)-2-oxo-4-(6-azaspiro[2.5]octane-6-yl)-1,2-dihydro-1,7-naphthyridin-3-carbonitrile]
Tmax [2]: 1 h | AUC(0-t) [2]: 7580 ng·h/mL | half-life [2]: 3.24 h | bioavailability [2]: 62.5% | Vz_obs iv (apparent distribution volume) [3]: 1.16 L/kg | AUC(0-t) [3]: 2430 ng·h/mL | clearance [3]: 8.17 mL/min/kg | half-life [3]: 1.89 h

CLint [1]: 0.0012 mL · min^−1 · mg^−1 proteins | k [1]: 0.191 min⁻¹ | Original drug residual % at 60 min [1]: 93.4% | half-life at 1 μM [1]: 19.2 h
Compound: N#Cc1c(N2CC[C@@H](n3cccn3)C2)c2ccncc2[nH]c1=O [Compound 19, (R)-4-(3-(1H-pyrazol-1-yl)pyrrolidin-1-yl)-2-oxo-1,2-dihydro-1,7-naphthyridin-3-carbonitrile]

CLint [1]: 0.0038 mL · min^−1 · mg^−1 proteins | k [1]: 0.0019 min⁻¹ | Original drug residual % at 60 min [1]: 88.2% | half-life at 1 μM [1]: 6.08 h
Compound: COCCOc1cc2c(N3CCC(C)(OC)CC3)c(C#N)c(=O)[nH]c2cn1 [Compound 145, 4-(4-methoxy-4-methylpiperidin-1-yl)-6-(2-methoxyethoxy)-2-oxo-1,2-dihydro-1,7-naphthyridin-3-carbonitrile]

— patent US10889591B2, “PDE9 inhibitor and use thereof” (Nanjing TransThera Biosciences Co. Ltd., priority 2017, dated 2021)
